The values that follow come from ChEMBL document CHEMBL1201862, “PubChem BioAssay data set” (2004).

Usually AC50 stands for the concentration at which the activity in the assay is half-maximal. The term IC50 denotes the concentration at which inhibition is half-maximal. As usually defined, the EC50 is the midpoint of the concentration-response curve.

The source made the active and inactive calls.

The target of one experiment is DNA topoisomerase (Yersinia pestis, UniProt A0A2S9PM60). Description: Y. pestis Topo-I inhibitors, cleavage product readout, dose response, biochemical, cherry-pick (AID 588525).
DNA topoisomerase, sequence (A0A2S9PM60 whole entry): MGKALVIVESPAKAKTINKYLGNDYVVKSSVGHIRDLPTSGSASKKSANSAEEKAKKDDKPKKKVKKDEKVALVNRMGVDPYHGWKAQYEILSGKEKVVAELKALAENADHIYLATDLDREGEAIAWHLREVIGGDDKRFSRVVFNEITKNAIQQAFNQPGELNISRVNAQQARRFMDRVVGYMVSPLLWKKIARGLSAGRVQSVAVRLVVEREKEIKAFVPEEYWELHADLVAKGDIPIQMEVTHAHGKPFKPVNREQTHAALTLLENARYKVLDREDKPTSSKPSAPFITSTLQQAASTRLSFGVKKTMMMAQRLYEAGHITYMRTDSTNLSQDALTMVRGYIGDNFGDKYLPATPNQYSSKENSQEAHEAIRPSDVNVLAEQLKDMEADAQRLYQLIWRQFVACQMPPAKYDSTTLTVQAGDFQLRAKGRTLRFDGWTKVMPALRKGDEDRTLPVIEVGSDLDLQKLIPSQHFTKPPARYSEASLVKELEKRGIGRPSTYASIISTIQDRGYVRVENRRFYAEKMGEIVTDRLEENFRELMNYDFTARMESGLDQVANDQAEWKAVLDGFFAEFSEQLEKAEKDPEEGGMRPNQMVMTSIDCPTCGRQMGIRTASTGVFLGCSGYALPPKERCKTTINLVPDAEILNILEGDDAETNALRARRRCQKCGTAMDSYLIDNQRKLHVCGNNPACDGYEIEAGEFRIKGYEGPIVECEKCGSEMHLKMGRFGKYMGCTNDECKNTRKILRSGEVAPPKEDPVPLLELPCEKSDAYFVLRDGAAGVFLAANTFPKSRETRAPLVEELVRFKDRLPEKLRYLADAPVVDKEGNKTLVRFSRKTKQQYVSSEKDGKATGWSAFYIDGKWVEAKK
Experiment [1] concerns INS1. Kind of experiment: protection from cytokine-driven beta-cell apoptosis, dose response, JC-1 fluorescence, INS-1E, dry powder, set 2 (AID 488867). The experiment is classed as functional, cell-based. The settings on record: Rattus norvegicus.
Experiment [2] deals with INS1. Kind of experiment: protection from cytokine-induced mitochondrial depolarization, dose response, cell-based, INS-1E, JC-1 fluorescence ratio, dry powder (AID 488931). The experiment is classed as functional. The settings on record: Rattus norvegicus.
In another experiment the target is Phospholipase D2 (Homo sapiens, UniProt O14939). Description: PLD2 inhibitor potency in cells, dose response (AID 602147).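 Further: cellular assay in HEK293 cells overexpressing GFP-tagged PLD2.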 It is filed as functional.
Phospholipase D2, sequence (O14939 whole entry): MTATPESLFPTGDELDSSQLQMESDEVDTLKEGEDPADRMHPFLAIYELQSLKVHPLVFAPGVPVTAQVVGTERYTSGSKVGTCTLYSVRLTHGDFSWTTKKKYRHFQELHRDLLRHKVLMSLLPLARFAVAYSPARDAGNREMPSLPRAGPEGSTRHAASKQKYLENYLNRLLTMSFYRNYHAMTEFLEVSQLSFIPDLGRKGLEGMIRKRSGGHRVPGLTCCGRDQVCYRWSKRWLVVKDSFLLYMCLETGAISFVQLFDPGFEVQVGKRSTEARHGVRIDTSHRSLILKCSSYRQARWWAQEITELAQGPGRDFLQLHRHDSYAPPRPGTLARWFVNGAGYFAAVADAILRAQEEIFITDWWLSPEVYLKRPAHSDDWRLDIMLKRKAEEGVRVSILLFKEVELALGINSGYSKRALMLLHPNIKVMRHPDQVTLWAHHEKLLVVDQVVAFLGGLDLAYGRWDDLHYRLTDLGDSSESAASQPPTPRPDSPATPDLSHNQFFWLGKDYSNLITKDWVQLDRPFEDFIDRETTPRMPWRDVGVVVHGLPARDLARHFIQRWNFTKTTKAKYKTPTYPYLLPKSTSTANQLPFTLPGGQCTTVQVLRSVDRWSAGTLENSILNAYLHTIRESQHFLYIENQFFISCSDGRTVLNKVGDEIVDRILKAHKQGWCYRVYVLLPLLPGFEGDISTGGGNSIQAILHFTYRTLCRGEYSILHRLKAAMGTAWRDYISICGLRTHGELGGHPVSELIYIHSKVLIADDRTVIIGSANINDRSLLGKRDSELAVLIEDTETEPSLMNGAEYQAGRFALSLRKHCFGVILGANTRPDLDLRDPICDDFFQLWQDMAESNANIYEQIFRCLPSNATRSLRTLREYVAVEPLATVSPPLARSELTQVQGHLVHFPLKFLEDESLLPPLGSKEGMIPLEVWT
A further experiment concerns the target T1, Phospholipase D1 (Homo sapiens, UniProt Q13393).
T1 sequence (Q13393 whole entry): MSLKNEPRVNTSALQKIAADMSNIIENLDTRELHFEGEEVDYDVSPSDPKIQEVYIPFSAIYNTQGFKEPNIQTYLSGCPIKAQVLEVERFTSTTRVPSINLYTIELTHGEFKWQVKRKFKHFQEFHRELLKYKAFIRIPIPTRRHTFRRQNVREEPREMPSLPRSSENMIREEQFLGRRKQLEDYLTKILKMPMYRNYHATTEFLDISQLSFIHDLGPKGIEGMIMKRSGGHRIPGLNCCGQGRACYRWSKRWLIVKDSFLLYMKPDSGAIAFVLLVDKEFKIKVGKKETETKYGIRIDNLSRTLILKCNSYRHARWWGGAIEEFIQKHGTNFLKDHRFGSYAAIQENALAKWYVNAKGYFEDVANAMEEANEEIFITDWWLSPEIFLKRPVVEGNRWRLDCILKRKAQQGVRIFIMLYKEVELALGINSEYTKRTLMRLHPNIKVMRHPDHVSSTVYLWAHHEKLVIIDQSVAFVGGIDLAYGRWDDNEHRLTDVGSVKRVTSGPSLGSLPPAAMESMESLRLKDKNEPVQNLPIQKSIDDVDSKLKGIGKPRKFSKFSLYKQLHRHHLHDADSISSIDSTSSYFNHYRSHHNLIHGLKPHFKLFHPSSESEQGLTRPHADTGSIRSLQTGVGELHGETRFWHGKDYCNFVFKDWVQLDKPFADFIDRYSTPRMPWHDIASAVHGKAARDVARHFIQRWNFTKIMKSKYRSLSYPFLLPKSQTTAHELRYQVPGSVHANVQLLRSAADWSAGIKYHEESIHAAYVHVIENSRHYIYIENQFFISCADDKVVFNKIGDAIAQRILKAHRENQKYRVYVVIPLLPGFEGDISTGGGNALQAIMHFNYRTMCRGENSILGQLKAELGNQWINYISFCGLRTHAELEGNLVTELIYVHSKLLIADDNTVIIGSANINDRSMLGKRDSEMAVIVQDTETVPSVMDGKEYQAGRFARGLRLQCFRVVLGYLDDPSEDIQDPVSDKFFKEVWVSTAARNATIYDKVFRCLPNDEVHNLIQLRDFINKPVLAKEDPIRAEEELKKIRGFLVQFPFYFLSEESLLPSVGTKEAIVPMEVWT
Description: PLD1 inhibitor potency in cells, dose response (AID 602151).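 Further: cellular PLD1 assay in Calu-1 cells stimulated with PMA.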 The experiment is classed as functional.

Experiment [3] has as its target T2, Type-1 angiotensin II receptor (Homo sapiens, UniProt P30556).
T2 sequence (P30556 whole entry): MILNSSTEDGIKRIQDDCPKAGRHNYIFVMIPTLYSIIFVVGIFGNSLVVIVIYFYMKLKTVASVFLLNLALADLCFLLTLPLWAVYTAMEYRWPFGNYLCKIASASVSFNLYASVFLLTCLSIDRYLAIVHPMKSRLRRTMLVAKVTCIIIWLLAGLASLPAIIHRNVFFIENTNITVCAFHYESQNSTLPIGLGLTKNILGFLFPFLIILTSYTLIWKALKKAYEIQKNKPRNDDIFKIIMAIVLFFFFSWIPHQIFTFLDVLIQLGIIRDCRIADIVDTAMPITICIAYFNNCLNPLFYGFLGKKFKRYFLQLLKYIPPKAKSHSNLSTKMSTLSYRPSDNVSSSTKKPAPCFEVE
Kind of experiment: AT1 receptor antagonists, dose response, selectivity assay for APJ receptor antagonist project, cell-based, uHTS hits (AID 463214).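 Further: antagonist potency against angiotensin II stimulated AT1 response.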 It is filed as functional.

The subject of experiment [4] is BJ. Kind of experiment: cytotoxicity toward Ras-transformed BJeLR fibroblasts, dose response, cell-based, alamar blue fluorescence, cherrypicked samples (AID 2631).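 Further: confirmatory dose-response assay in RAS-dependent BJ fibroblasts engineered with TERT, LT and ST, with cytotoxicity read by fluorescence.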 It is filed as functional. The settings on record: Homo sapiens.
A further experiment has as its system Streptococcus. Description: Group A Streptococcus viability loss, dose response, counter-screen for streptokinase expression inhibitor project, luminescence, BacTiterGlo (AID 1915).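 Further: potency for reduction of bacterial viability or growth.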 It is filed as functional, organism-based. In general terms: Counterscreens check selectivity or assay interference.
A further experiment addresses T3, Streptokinase A (Streptococcus pyogenes serotype M1, UniProt P10520).
T3 sequence (P10520 whole entry): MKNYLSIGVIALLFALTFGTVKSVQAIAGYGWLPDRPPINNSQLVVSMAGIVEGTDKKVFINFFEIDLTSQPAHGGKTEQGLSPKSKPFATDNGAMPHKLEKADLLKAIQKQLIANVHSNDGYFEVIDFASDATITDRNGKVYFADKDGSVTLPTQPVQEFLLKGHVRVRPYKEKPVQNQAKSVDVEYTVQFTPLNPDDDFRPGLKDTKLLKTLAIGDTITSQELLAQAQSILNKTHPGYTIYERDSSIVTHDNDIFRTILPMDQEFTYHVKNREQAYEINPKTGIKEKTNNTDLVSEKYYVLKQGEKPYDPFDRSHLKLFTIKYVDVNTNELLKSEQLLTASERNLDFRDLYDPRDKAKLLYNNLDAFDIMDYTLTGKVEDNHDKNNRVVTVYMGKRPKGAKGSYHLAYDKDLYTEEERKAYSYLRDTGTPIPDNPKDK
Description: S. pyogenes streptokinase expression inhibitors, potency, dose response, plasminogen activation absorbance, OD405 (AID 1914).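 Further: secreted streptokinase activity via plasminogen activation per viability signal from cell pellet.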 It is filed as functional, Streptococcus pyogenes M1 GAS.

In experiment [5] the test system is BJ. Kind of experiment: cells. It is filed as functional, cell-based. Conditions: Homo sapiens.
The nature of experiment [6]: cytotoxicity in HEK-293T cells, dose response, cytotoxicity control for TCR NF-kB inhibitor project, luminescence, T-cell screen hits (AID 489026).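 Further: cells exposed to compound about 14 hours before the viability readout.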 The experiment is classed as functional, cell-based.
The nature of experiment [7]: cytotoxicity toward DRD oncogenic fibroblasts, dose response, cell-based, non-viral oncogenic, luminescence (AID 1934). It is filed as functional. Conditions: Homo sapiens.
In experiment [8] the test system is BJ. Kind of experiment: cytotoxicity toward BJ-TERT fibroblasts, dose response, cell-based, RAS-independent, luminescence (AID 1933). It is filed as functional. Conditions: Homo sapiens.
Experiment [9] has as its system Streptococcus sp. 'group A'. Kind of experiment: growth inhibition of control SK(-) GAS strain, dose response, counter-screen for streptokinase expression inhibitor project, luminescence, kanamycin, BacTiterGlo, confirmation (AID 1900). The experiment is classed as functional, organism-based.
Experiment [10] can be described thus: HepG2 cell cytotoxicity, dose response, cytotoxicity control, ATP luminescence, cherry-pick, activator set 2 (AID 1053143). It is filed as functional, cell-based.
The next experiment addresses Beta-galactosidase (Escherichia coli, UniProt Q8VNN2). Kind of experiment: PubChem AID 485352. It is filed as functional.
The subject of experiment [11] is BJ. Description: cytotoxicity toward BJ-TERT-LT-ST fibroblasts, dose response, cell-based, RAS-independent, luminescence (AID 1935).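 Further: BJ fibroblasts immortalized with TERT plus LT and ST oncogenes.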 The experiment is classed as functional. Conditions: Homo sapiens.
The test system of another experiment is Jurkat. Kind of experiment: SAR Analysis of small molecule inhibitors of T-cell specific antigen receptor-induced NF-kB activation in a Jurkat cell line using a luminescence assay - Set 2. [Related pubchem assays (depositor defined):AID435003, AID435012, AID465]. The experiment is classed as functional, cell-based. Conditions: Homo sapiens.
Experiment [12] deals with HEK293. Kind of experiment: cytotoxicity in HEK293T NF-kB-Luc cells, SAR follow-up, cytotoxicity control for NF-kB activator project, cell-based, resazurin fluorescence (AID 493251). It is filed as functional. The settings on record: Homo sapiens. (Alamar Blue is a resazurin reagent that responds to reducing activity.)
For experiment [13], the system named is HEK293. Kind of experiment: SAR Analysis of small molecule inhibitors of T-cell specific antigen receptor-induced NF-kB activation in a HEK-293T cell line using a luminescence assay - Set 2. [Related pubchem assays (depositor defined):AID435003, AID435012, AID489026]. It is filed as functional, cell-based. The settings on record: Homo sapiens.
Experiment [14] addresses DNA dC->dU-editing enzyme APOBEC-3G (Homo sapiens, UniProt Q9HC16). It is filed as functional.
Experiment [15] has as its target T4, Beta-adrenergic receptor kinase 1 (Homo sapiens, UniProt P25098).
T4 sequence (P25098 whole entry): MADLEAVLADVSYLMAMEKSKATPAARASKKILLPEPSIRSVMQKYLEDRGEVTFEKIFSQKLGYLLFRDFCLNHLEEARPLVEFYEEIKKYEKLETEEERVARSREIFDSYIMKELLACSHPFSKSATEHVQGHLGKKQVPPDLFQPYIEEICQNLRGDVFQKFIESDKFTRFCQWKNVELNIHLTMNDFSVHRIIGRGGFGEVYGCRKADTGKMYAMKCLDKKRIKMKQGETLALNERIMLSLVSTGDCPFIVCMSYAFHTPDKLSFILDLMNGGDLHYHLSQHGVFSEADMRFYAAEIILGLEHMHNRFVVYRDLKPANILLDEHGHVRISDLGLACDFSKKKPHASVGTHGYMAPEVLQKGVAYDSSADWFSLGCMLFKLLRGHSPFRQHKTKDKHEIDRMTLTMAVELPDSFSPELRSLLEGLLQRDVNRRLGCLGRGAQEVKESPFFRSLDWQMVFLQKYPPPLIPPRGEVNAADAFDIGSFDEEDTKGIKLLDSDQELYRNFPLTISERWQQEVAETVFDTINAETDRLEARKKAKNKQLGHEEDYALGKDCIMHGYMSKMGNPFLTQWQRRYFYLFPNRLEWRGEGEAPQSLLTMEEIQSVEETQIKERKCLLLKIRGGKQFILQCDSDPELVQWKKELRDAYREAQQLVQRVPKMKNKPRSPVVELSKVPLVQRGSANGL
Kind of experiment: GRK2 inhibitors displacing RNA aptamer, dose response, biochemical, flow cytometry beads, FAM-aptamer, powder set 1 (AID 588720). (In flow cytometry, cells or beads pass a laser one at a time.)

In the next experiment the target is Estrogen receptor beta (Homo sapiens, UniProt Q92731).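 Further: recombinant ER-beta bound to coactivator SRC1 peptide in presence of estradiol agonist; inhibitors block coactivator peptide binding and lower the FRET signal.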
Estrogen receptor beta, sequence (Q92731 whole entry): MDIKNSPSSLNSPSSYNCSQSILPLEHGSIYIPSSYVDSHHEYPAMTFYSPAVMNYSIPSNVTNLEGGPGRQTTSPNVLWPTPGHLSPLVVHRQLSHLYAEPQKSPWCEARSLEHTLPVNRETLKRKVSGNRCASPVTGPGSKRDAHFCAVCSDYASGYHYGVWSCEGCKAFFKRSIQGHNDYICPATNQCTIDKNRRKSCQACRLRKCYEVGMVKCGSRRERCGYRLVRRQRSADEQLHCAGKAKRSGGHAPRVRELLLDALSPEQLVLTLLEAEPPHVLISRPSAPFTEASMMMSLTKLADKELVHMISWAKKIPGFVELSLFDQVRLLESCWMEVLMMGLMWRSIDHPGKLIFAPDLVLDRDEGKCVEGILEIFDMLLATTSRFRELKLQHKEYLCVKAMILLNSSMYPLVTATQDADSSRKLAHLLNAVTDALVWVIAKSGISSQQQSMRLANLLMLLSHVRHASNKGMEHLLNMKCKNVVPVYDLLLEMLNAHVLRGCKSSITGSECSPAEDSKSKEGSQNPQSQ
Experiment [16] concerns the target T4, Beta-adrenergic receptor kinase 1. Description: aptamer displacement from bead-bound GRK2 – biochemical, cherry pick 1, bead flow cytometry, dose response (AID 504500).
Experiment [17] has as its target DNA dC->dU-editing enzyme APOBEC-3A (Homo sapiens, UniProt P31941). Kind of experiment: Dose Response confirmation of small molecule APOBEC3A DNA Deaminase Inhibitors via a fluorescence-based single-stranded DNA deaminase assay. [Related pubchem assays (depositor defined):AID493011, AID493024]. It is filed as functional.

DNA dC->dU-editing enzyme APOBEC-3G, sequence (Q9HC16 whole entry): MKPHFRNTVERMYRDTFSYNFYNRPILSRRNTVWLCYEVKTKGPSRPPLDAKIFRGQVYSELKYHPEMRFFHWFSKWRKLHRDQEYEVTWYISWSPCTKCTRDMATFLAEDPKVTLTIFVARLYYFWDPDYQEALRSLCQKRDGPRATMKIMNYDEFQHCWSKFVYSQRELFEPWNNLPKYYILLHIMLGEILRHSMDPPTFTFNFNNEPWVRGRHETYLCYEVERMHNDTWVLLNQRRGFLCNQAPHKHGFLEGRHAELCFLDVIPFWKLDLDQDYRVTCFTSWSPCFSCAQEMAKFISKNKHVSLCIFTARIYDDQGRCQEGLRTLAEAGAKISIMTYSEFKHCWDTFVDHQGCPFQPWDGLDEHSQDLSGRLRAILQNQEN
Beta-galactosidase, sequence (Q8VNN2 whole entry): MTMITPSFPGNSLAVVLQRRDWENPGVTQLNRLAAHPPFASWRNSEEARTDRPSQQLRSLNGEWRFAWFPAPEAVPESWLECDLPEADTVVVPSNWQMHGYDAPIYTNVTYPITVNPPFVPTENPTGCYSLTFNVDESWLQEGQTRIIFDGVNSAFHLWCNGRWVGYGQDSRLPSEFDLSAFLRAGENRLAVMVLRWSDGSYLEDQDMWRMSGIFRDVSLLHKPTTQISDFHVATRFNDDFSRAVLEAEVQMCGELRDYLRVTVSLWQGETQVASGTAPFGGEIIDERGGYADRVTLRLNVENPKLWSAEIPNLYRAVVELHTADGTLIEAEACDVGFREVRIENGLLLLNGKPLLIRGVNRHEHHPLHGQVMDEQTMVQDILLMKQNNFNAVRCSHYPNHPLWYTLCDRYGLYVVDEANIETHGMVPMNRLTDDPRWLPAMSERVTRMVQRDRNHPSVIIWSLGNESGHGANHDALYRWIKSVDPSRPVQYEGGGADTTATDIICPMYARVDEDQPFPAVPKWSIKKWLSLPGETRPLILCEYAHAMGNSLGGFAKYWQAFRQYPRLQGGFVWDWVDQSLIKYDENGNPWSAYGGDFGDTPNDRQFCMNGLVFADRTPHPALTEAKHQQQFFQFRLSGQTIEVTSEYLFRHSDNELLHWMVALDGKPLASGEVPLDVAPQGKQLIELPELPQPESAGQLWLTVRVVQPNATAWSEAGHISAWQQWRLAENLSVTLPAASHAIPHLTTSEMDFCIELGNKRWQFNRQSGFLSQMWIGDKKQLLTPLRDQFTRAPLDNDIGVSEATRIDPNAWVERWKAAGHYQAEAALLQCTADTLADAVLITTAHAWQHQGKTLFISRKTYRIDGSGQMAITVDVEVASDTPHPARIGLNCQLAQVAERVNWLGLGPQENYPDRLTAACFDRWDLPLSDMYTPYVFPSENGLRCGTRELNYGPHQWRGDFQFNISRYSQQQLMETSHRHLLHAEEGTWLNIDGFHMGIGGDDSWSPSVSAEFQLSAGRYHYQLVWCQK
DNA dC->dU-editing enzyme APOBEC-3A, sequence (P31941 whole entry): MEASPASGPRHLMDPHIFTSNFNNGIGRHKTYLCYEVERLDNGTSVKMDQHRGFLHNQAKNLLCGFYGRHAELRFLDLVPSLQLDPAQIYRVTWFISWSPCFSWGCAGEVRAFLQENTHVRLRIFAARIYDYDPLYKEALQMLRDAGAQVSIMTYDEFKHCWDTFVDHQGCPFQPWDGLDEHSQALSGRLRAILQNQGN

Turning to `O=C(Nc1ccccc1Cl)OCC#CCOC(=O)Nc1ccccc1Cl`, the AC50 at DNA topoisomerase was 12.6 µM (active).
Regarding `COc1ccc(S(=O)(=O)N(C)C[C@@H]2Oc3c(NC(=O)Nc4cccc5ccccc45)cccc3C(=O)N([C@@H](C)CO)C[C@H]2C)cc1OC`, the AC50 in the experiment on INS1 [1] was 116 µM (active); in the experiment with INS1 [2], 85 µM (active).
Take `O=C(NCCN1CCC2(CC1)C(=O)NCN2c1cccc(F)c1)c1ccc2c(c1)C(=O)OC2=O`: the IC50 at Phospholipase D2 was 0.265 µM (active); at Phospholipase D1, 5.55 µM (active).
`COc1cc(/C=C/c2ccc3cccc(O)c3n2)cc(OC)c1OC`: the IC50 is 6.2 µM (active) in experiment [3] and > 80 µM (inactive) in experiment [6]. Moreover, the EC50 is 2.96 µM (inconclusive) with BJ [4]; 15.6 µM (active) in the experiment on Streptococcus; > 150 µM (not active) on Streptokinase A; 47.8 µM (inconclusive) in the experiment with BJ [5]; 1.5 µM (active) in [7]; 1.26 µM (active) in the experiment with BJ [8]. The values for the 50% effective concentration (EC50) (in [9]; at Beta-galactosidase; in the experiment on BJ [11]) were 2.28 µM (active), > 40 µM (inactive) and 1.2 µM (inconclusive), respectively. Moreover, in [10], the AC50 is 9.5 µM (active).
Regarding `COc1ccc(C(=O)Nc2ccc(NC(=O)c3cc4ccccc4o3)cc2)cc1Br`, the IC50 in the experiment on Jurkat was > 79 µM (inactive); in the experiment with HEK293 [12] it was > 80 µM (inactive); in the experiment on HEK293 [13], > 80 µM (inactive).
Take `Cc1cc(=O)[nH]c(SCC(=O)NCc2ccco2)n1`: the IC50 in experiment [14] was 43.4 µM (active); at Estrogen receptor beta it was 6.27 µM (active); in [17], 17.4 µM (active). Moreover, the EC50 was 44.9 µM (active) in experiment [15] and 22.1 µM (inactive) in experiment [16].
